Results taken from PubChem BioAssay AID1918932 (Molecular Pharmacology Branch, DTP, NCI, 2023).
Where “and” joins values, the source holds several entries; their conditions need not be identical. Equal values may be shown once. Values belong to the compound of their own block, whether it stands above or below them.

System: 171881-019-R-J1-PDC complex spheroid viability
Assay: Anticancer human tumor 171881-019-R-J1-PDC patient-derived invasive breast carcinoma cell line growth inhibition
Settings: for viability, T/C: stronger effect = lower value
Procedure, shortened: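 Complex spheroids of tumor cells with HUVEC and human MSCs, exposed to iadademstat combined with other agents. Each agent tested in half-log steps from near clinical Cmax (else 10 microM top), DMSO ≤0.25%.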

[1] = curve of first compound, second compound 0.1 µM
[2] = curve of first compound, second compound 0.316 µM
[3] = curve of first compound, second compound 1 µM
[4] = curve of first compound, second compound 3.16 µM
[5] = curve of first compound, second compound 10 µM
[6] = second compound 0.1 µM, first compound 0.00949 µM
[7] = second compound 0.1 µM, first compound 0.03 µM
[8] = second compound 0.1 µM, first compound 0.0949 µM
[9] = second compound 0.1 µM, first compound 0.3 µM
[10] = second compound 0.316 µM, first compound 0.00949 µM
[11] = second compound 0.316 µM, first compound 0.03 µM
[12] = second compound 0.316 µM, first compound 0.0949 µM
[13] = second compound 0.316 µM, first compound 0.3 µM
[14] = second compound 1 µM, first compound 0.00949 µM
[15] = second compound 1 µM, first compound 0.03 µM
[16] = second compound 1 µM, first compound 0.0949 µM
[17] = second compound 1 µM, first compound 0.3 µM
[18] = second compound 3.16 µM, first compound 0.00949 µM
[19] = second compound 3.16 µM, first compound 0.03 µM
[20] = second compound 3.16 µM, first compound 0.0949 µM
[21] = second compound 3.16 µM, first compound 0.3 µM
[22] = second compound 10 µM, first compound 0.00949 µM
[23] = second compound 10 µM, first compound 0.03 µM
[24] = second compound 10 µM, first compound 0.0949 µM
[25] = second compound 10 µM, first compound 0.3 µM

IC50 (curve of compound): 798 nM and 599 nM
Structure (SMILES): COc1ccc([C@@H](O)c2cc(-c3ncnc4cc(N5CCOCC5)ccc34)c(F)cc2Cl)nn1
viability, T/C (compound 0.0316 µM): 101% and 98.9% | viability, T/C (compound 0.1 µM): 128% and 95.7% | viability, T/C (compound 0.316 µM): 98.3% and 76% | viability, T/C (compound 1 µM): 38.5% and 29.6% | viability, T/C (compound 3.16 µM): 7.38% and 8.2% | viability, T/C (compound 10 µM): 6.64% and 11.3%

IC50 (curve of compound): > 1000 nM and 384 nM
Structure (SMILES): COc1cc(Nc2ncc3c(n2)-c2ccc(Cl)cc2C(c2c(F)cccc2OC)=NC3)ccc1C(=O)O
viability, T/C (compound 0.00316 µM): 91.6% and 57% | viability, T/C (compound 0.01 µM): 85.9% and 64.4% | viability, T/C (compound 0.0316 µM): 84.5% and 63.2% | viability, T/C (compound 0.1 µM): 89% and 58.9% | viability, T/C (compound 0.316 µM): 80.6% and 54.1% | viability, T/C (compound 1 µM): 51.5% and 30.1%

IC50 (curve of compound): 202 nM and 115 nM
Structure (SMILES): Nc1ncn(C2CC(O)C(CO)S2)c(=O)n1 (stereo unspecified)
viability, T/C (compound 0.000949 µM): 95.1% and 102% | viability, T/C (compound 0.003 µM): 98% and 105% | viability, T/C (compound 0.00949 µM): 136% and 94.5% | viability, T/C (compound 0.03 µM): 124% and 76.7% | viability, T/C (compound 0.0949 µM): 73% and 53.8% | viability, T/C (compound 0.3 µM): 38% and 34.8%

The next lines start with the compound.

Structure (SMILES): Nc1ccn(C2OC(CO)C(O)C2(F)F)c(=O)n1 (stereo unspecified) + NC1CCC(NC2CC2c2ccccc2)CC1
IC50 [1]: > 300 nM | IC50 [2]: > 300 nM | IC50 [3]: > 300 nM | IC50 [4]: > 300 nM | IC50 [5]: > 300 nM | viability, T/C (second compound 0.1 µM, first compound 0.000949 µM): 77.4% | viability, T/C (second compound 0.1 µM, first compound 0.003 µM): 53.8% | viability, T/C [6]: 56.2% | viability, T/C [7]: 59.2% | viability, T/C [8]: 57.8% | viability, T/C [9]: 55.6% | viability, T/C (second compound 0.316 µM, first compound 0.000949 µM): 77.7% | viability, T/C (second compound 0.316 µM, first compound 0.003 µM): 54.9% | viability, T/C [10]: 54.6% | viability, T/C [11]: 58.6% | viability, T/C [12]: 56.4% | viability, T/C [13]: 54.3% | viability, T/C (second compound 1 µM, first compound 0.000949 µM): 85.6% | viability, T/C (second compound 1 µM, first compound 0.003 µM): 56.5% | viability, T/C [14]: 57.8% | viability, T/C [15]: 60.4% | viability, T/C [16]: 58% | viability, T/C [17]: 54.7% | viability, T/C (second compound 3.16 µM, first compound 0.000949 µM): 84.8% | viability, T/C (second compound 3.16 µM, first compound 0.003 µM): 56% | viability, T/C [18]: 60.8% | viability, T/C [19]: 63.4% | viability, T/C [20]: 60.1% | viability, T/C [21]: 54.7% | viability, T/C (second compound 10 µM, first compound 0.000949 µM): 90.5% | viability, T/C (second compound 10 µM, first compound 0.003 µM): 62.5% | viability, T/C [22]: 64% | viability, T/C [23]: 70% | viability, T/C [24]: 68.5% | viability, T/C [25]: 64.1%

Structure (SMILES): NS(=O)(=O)OCC1CC(n2ccc3c(NC4CCc5ccccc54)ncnc32)CC1O (stereo unspecified) + NC1CC1c1ccc(-c2cccc(O)c2)cc1
IC50 [1]: 10.3 nM | IC50 [2]: 11.3 nM | IC50 [3]: 10.1 nM | IC50 [4]: 12.8 nM | IC50 [5]: < 9.49 nM | viability, T/C [6]: 51.1% | viability, T/C [7]: 36.4% | viability, T/C [8]: 26.7% | viability, T/C [9]: 27.4% | viability, T/C (second compound 0.1 µM, first compound 0.949 µM): 27.1% | viability, T/C (second compound 0.1 µM, first compound 3 µM): 23.3% | viability, T/C [10]: 52.9% | viability, T/C [11]: 36.4% | viability, T/C [12]: 31.3% | viability, T/C [13]: 28.1% | viability, T/C (second compound 0.316 µM, first compound 0.949 µM): 31.8% | viability, T/C (second compound 0.316 µM, first compound 3 µM): 21.4% | viability, T/C [14]: 51.3% | viability, T/C [15]: 27.4% | viability, T/C [16]: 27.8% | viability, T/C [17]: 30% | viability, T/C (second compound 1 µM, first compound 0.949 µM): 27.5% | viability, T/C (second compound 1 µM, first compound 3 µM): 21.9% | viability, T/C [18]: 56.5% | viability, T/C [19]: 31.2% | viability, T/C [20]: 26% | viability, T/C [21]: 24.1% | viability, T/C (second compound 3.16 µM, first compound 0.949 µM): 26.9% | viability, T/C (second compound 3.16 µM, first compound 3 µM): 21.1% | viability, T/C [22]: 45.1% | viability, T/C [23]: 30.6% | viability, T/C [24]: 27.1% | viability, T/C [25]: 27.6% | viability, T/C (second compound 10 µM, first compound 0.949 µM): 25.4% | viability, T/C (second compound 10 µM, first compound 3 µM): 19.5%
